The results in this text go back to PubChem BioAssay (NCI).

“And” between values parts separate entries of the source, which are not always exact repeats. Identical values can stand only once.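 Following 48 hours of exposure in 96-well plates, responses at five concentrations were used to interpolate endpoints linearly. GI50: concentration for 50% inhibition of growth. Definition used: TGI = concentration required for complete inhibition of growth.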

Test in all cases: NCI anticancer screen, dose series, 48 h
For test [1], the system named is 786-0 renal.
The subject of test [2] is HCT-116 colon.
Test [3] relates to HT29 colon.
The test system of test [4] is IGROV1 ovarian.
Test [5] concerns KM20L2 colon.
The test system of test [6] is M19-MEL melanoma.
The test system of test [7] is SN12C renal.
In test [8] the test system is XF 498 CNS.
The subject of test [9] is BT-549 breast.
The subject of test [10] is MDA-MB-435.

Consider `CC(=O)CC(=O)Nc1ccc(OS(N)(=O)=O)cc1`, for which the TGI in [1], in test [2], in test [3], in [4], in [5] and in [6] was over 100 µM throughout. Further, the TGI in test [7] and in test [8] was over 100 µM throughout.

With `CC(C)CC1CC2C(=O)N(c3ccccc3)C(=O)C2c2[nH]c3ccccc3c21` (stereo not given), the TGI was over 100 µM in test [1]; 34 µM in [2]; over 100 µM in test [3]; 61.9 µM in [4]; over 100 µM in test [5]; over 100 µM in [6]. The TGI in test [7] was over 43.8 µM; in [8], 48.6 µM.

For the compound `COc1ccc(C2=NC(CO)[C@H](c3ccccc3)O2)cc1OC` (stereo not given in full), the TGI in [1], in test [2], in [3], in test [4], in [5] and in test [6] was over 100 µM in each case. For the same compound, the TGI in [7] and in test [8] was over 100 µM each time.

Take `NC(=O)c1c(-c2ccccc2)c(-c2ccccc2)cc2c(=O)c3ccccc3[nH]c12`: the TGI in [1] is 21.5 µM; in test [2], 35.9 µM; in test [3] it was 42.9 µM; in test [4], 74.3 µM; in [5], 72.9 µM; in [6], 79.3 µM. The TGI is over 100 µM in [7] and 36.6 µM in test [8].

Take `O=C(OCc1ccccc1)N1N=NC2C3CC(OCc4ccccc4)(OCc4ccccc4)C(O3)C21` (stereo not given): the TGI is over 100 µM in test [1]; over 100 µM in [3]; over 100 µM in [4]; over 100 µM in test [5]; 77.6 µM in test [6]; over 100 µM in test [7]. In [8], this compound showed a TGI of 53.4 µM.

Consider `C=CCN=C1NC(=O)C(CC(=O)Nc2ccc([N+](=O)[O-])cc2[N+](=O)[O-])S1` (stereo not given), for which the TGI in test [1], in [2], in test [3], in [4], in test [5] and in test [6] was over 100 µM throughout. The TGI in [7] and in test [8] was over 100 µM in each case.

As for `NNC(=O)C(=O)N/N=C1\CCCC1C(=O)CCC(=O)Nc1cccc(Cl)c1` (stereo not given), the TGI in test [1], in test [2], in test [3], in [4], in [5] and in test [6] was over 100 µM throughout. The TGI in [7] and in test [8] was over 100 µM each time.

Regarding `CC[C@@]1(O)C(=O)OCc2c1cc1n(c2=O)Cc2cc3c(N)c(OC)ccc3nc2-1`, the GI50 in test [1] was under 0.0157 µM; in test [3] it was 0.205 µM; in [4] it was 0.223 µM; in test [5] it was 0.125 µM; in test [6] it was 0.159 µM; in test [7], 0.0124 µM. The GI50 in test [8] is 0.389 µM. Also, the TGI in test [1] is 0.0738 µM; in test [3] it was over 100 µM; in [4] it was 2.45 µM; in test [5] it was 1.8 µM; in test [6], 1.46 µM; in test [7] it was 0.126 µM. The TGI in test [8] is 4.14 µM.

For `Cc1ccc(C)c(NC(=O)C(=O)C(C2C(C)CC(=O)C2CC(=O)O)[N+](=O)[O-])c1` (stereo not given), the TGI in test [1], in [2], in test [3], in [4], in test [5] and in test [6] was over 100 µM in each case. Besides, the TGI in test [7] and in test [8] was over 100 µM in each case.

Take `O=S(=O)([O-])c1ccc(C=Nc2ccccc2)c([O-])c1.O=S(=O)([O-])c1ccc(C=Nc2ccccc2)c([O-])c1.[Co+2]`: the GI50 in test [1] was 94.7 µM; in test [4], over 100 µM; in test [5], 1.76 µM; in test [6], 78.7 µM; in test [7], 18.8 µM; in test [8] it was 20.6 µM. Besides, the TGI in [1], in test [4], in test [5], in [6], in test [7] and in test [8] was over 100 µM each time.

In the case of `CCCCCCCCCCCCNC(=S)OCCCC`, the TGI in test [1], in [2], in test [3], in [4], in [5] and in test [6] was over 100 µM each time. Also, the TGI in test [7] and in [8] was over 100 µM throughout.

Consider `O=C1c2ccccc2C(=O)N1CCN(CCN1C(=O)c2ccccc2C1=O)Cc1ccccc1`, for which the TGI in [1], in test [2], in [5], in [6], in test [7] and in test [8] was over 100 µM in each case.

As to `CCOC(=O)C(c1ccsc1)P(=O)(OCC)OCC` (stereo not given), the TGI in [1] amounted to 31.7 µM; in test [2], 25.7 µM; in test [3] it was 39.7 µM; in [5], 29 µM; in test [6], 25.7 µM; in test [7] it was 30.1 µM. In [8], this compound gave a TGI of 38.4 µM.

`NNC(=S)N/N=C(\c1nc2ccc(Cl)cc2[nH]c1=O)C(O)c1cccc([N+](=O)[O-])c1` (stereo not given): the TGI in test [1] is over 62.5 µM; in [2] it was over 31.6 µM; in [3], over 50.9 µM; in [4] it was over 100 µM; in test [5], over 100 µM; in [6] it was over 100 µM. For the same compound, the TGI in test [7] and in test [8] was over 100 µM each time.

For `CCOC(=O)c1ccc(N[C@@H]2c3cc4c(cc3C(c3cc(OC)c(O)c(OC)c3)[C@H]3C(=O)OCC32)OCO4)cc1` (stereo not given in full), the GI50 was 0.199 µM and 0.492 µM in [1]; 0.835 µM in test [2]; 0.949 µM in [3]; 0.962 µM in test [4]; 0.697 µM in [6]; 0.249 µM in test [7]. In [8], the GI50 is 0.418 µM. Also, the TGI is 0.66 µM and 2.12 µM in test [1]; 4.58 µM in test [9]; 10.5 µM in [2]; 6.92 µM in test [3]; 10 µM in test [4]; 10.7 µM in [5]. In addition, the TGI in test [6] is 9.13 µM; in test [10] it was over 100 µM; in test [7], 0.955 µM and 3.91 µM; in test [8], 0.979 µM and 5.6 µM.

As to `COC(=O)N1C=CC2=C(C)C3Nc4ccccc4C3C(C)=C2C1` (stereo not given), the TGI in [1] was 2.16 µM; in test [2], 2.57 µM; in test [3], over 100 µM; in test [4], over 100 µM; in [5], over 100 µM; in test [6], over 100 µM. Further, the TGI in test [8] was determined as 7.87 µM.

With `Cc1ccccc1-c1cc(=O)c2cc(C)c(C)c(C(=O)O)c2o1`, the TGI in [1], in [2], in test [3], in test [4], in test [5] and in test [6] was over 100 µM in each case. Besides, the TGI in [7] and in test [8] was over 100 µM in each case.

Turning to `CC1Nc2ccccc2NC1C=C(C#N)C#N` (stereo not given), the TGI in test [1] came to 29.6 µM; in test [2] it was 26.8 µM; in test [3], 36.9 µM; in test [4], 37.8 µM; in test [5] it was 31 µM; in [6], 30.5 µM. In addition, the values for the TGI in [7] and in test [8] were 30.1 µM and 31.1 µM, respectively.

In the case of `O=C1/C(=C/c2ccccc2)CN(C(=O)/C=C/c2ccccc2)C/C1=C\c1ccccc1`, the TGI in test [1] was 8.27 µM; in test [9], 4.7 µM; in [2], 2.02 µM; in test [3], 11.8 µM; in test [4], 22.2 µM; in test [5], over 46.2 µM. For the same compound, the TGI in test [6] is over 22.9 µM; in [10], 3.74 µM; in test [7] it was 16 µM; in test [8], 38 µM.

On to `CC1(C)CCOC(Sc2ccccc2)C1` (stereo not given), for which the TGI in test [1], in [2], in [4], in test [5], in test [6] and in [7] was over 100 µM throughout. This compound showed a TGI in [8] of over 100 µM.
